The results in this text go back to ChEMBL document CHEMBL1201862, “PubChem BioAssay data set” (2004).

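Where inhibition never reached the appropriate level, the endpoint shown equals the highest concentration tested. Otherwise, values were interpolated linearly from a five-concentration, 48-hour dose response in 96-well plates. GI50: concentration for 50% inhibition of growth.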 Calls of active or inactive are those of the source. No stated cut-off is given here; in the data, active = GI50 up to about 1.1 µM and inactive = higher.

Some test systems named below: PC-3; UACC-257; COLO 205; UACC-62; 786-0; DU-145; OVCAR-3; CCRF-CEM; HCT-15; TK-10; RXF 393; MDA-MB-435; Hs-578T; A549; A498; SW-620; NCI-H522; HCT-116; SK-OV-3; NCI-H226.
What all share (assay): NCI-60 cell line screen, 48 h

In the case of `O=C1CN(c2cccc(Cl)c2)C(=O)CN1NCNN1CC(=O)N(c2cccc(Cl)c2)CC1=O`, the GI50 in the test with PC-3, in the test with UACC-257, in the test on COLO 205, in the test with UACC-62, with 786-0 and in the test on DU-145 was > 100 µM (inactive) throughout. The GI50 is > 100 µM (inactive) with OVCAR-3; > 100 µM (inactive) with CCRF-CEM; > 100 µM with HCT-15; > 100 µM (inactive) in the test with TK-10; > 100 µM (inactive) with RXF 393; > 100 µM (inactive) in the test with MDA-MB-435. Moreover, the GI50 in the test on Hs-578T, in the test with A549, in the test on A498, in the test with SW-620, in the test on NCI-H522 and with HCT-116 was > 100 µM (inactive) in each case. For the same compound, the GI50 with SK-OV-3 was > 100 µM (inactive).
As to `COc1cc(/C=C2\N=C(c3ccccc3)N(c3nc4ccc(Sc5ccccc5)cc4[nH]3)C2=O)ccc1O`, the GI50 in the test on PC-3 is 24.4 µM (inactive); in the test with UACC-257, 18 µM (inactive); in the test on COLO 205, 18 µM (inactive); in the test with UACC-62, 15.2 µM (inactive); with 786-0, 21.7 µM (inactive); in the test with DU-145, 35.7 µM (inactive). Moreover, the GI50 with OVCAR-3 was 30.5 µM (inactive); with CCRF-CEM, 6.14 µM (inactive); with HCT-15 it was 21.9 µM; with TK-10 it was 20.7 µM (inactive); in the test with RXF 393, 28.5 µM (inactive); with MDA-MB-435, 3.56 µM (inactive). In addition, the GI50 in the test with Hs-578T is 32.4 µM (inactive); in the test on A549, 30.5 µM (inactive); in the test on A498 it was 21.3 µM (inactive); in the test on SW-620, 21.7 µM (inactive); in the test on NCI-H522, 18.8 µM (inactive); with HCT-116, 21.1 µM (inactive). Also, the GI50 with SK-OV-3 was 30.4 µM (inactive).
As for `Cc1ccc2c(c1)SSSSS2`, the GI50 is 22.5 µM (inactive) in the test with PC-3; 17.6 µM (inactive) in the test with UACC-257; 29.4 µM (inactive) with COLO 205; 18.3 µM (inactive) with UACC-62; 15.8 µM (inactive) in the test with 786-0; 16.6 µM (inactive) in the test with DU-145. In addition, the GI50 with OVCAR-3 was 21.8 µM (inactive); with CCRF-CEM, 4.1 µM (inactive); with HCT-15 it was 14.1 µM; in the test on TK-10, 20 µM (inactive); with RXF 393, 21.1 µM (inactive); in the test with MDA-MB-435, 21 µM (inactive). The GI50 with Hs-578T was 26.9 µM (inactive); with A549 it was 20.4 µM (inactive); in the test with A498 it was 18.9 µM (inactive); in the test on SW-620 it was 15.1 µM (inactive); with NCI-H522, 16.3 µM (inactive); with HCT-116 it was 14.3 µM (inactive). Further, the GI50 in the test on SK-OV-3 is 21.9 µM (inactive).
Consider `COC1/C=C\C=C(/C)C(=O)Nc2cc3nc4ccc(Br)cc4oc-3c(c2=O)CC(C)CC(OC)C(O)C(C)/C=C(\C)C1OC(N)=O` (stereo unspecified), for which the GI50 was 0.931 µM (active) in the test with PC-3; 0.0556 µM (active) in the test on UACC-257; 0.01 µM (active) in the test with COLO 205; 0.0391 µM (active) in the test with UACC-62; 0.0227 µM (active) in the test on 786-0; 0.0458 µM (active) with DU-145. For the same compound, the GI50 in the test on OVCAR-3 was 0.082 µM (active); in the test on HCT-15, 0.142 µM; in the test on TK-10, 0.0424 µM (active); in the test on RXF 393, < 0.0112 µM (active); in the test on MDA-MB-435, 0.00389 µM (active); in the test on Hs-578T, 0.0628 µM (active). The GI50 in the test with A549 is 3.61 µM (inactive); in the test with A498 it was 13.5 µM (inactive); with NCI-H226, 1.75 µM (inactive); in the test with SW-620, 0.01 µM (active); in the test on NCI-H522 it was 0.01 µM (active); in the test with HCT-116, 0.0276 µM (active). Besides, the GI50 in the test on SK-OV-3 is 0.129 µM (active).
